From US20230250096A1, “SUBSTITUTED PHENYL-1H-PYRROLO[2,3-c] PYRIDINE DERIVATIVES” (Janssen Pharmaceutica NV, priority 2021, published 2023)

Experiments:
[1] = target: T1, menin/MLL (terbium chelate-labeled menin, FITC-MBM1 peptide) (Homo sapiens, UniProt O00255, T541A); assay: Menin/MLL homogenous time-resolved fluorescence (HTRF) assay; format: binding; settings: 30 min incubation
T1 construct: Menin (a.a 1-610-6xhis tag, 2.3 mg/mL in 20 mM Hepes)
T1 sequence (O00255 with tags, fused parts or gaps T541A): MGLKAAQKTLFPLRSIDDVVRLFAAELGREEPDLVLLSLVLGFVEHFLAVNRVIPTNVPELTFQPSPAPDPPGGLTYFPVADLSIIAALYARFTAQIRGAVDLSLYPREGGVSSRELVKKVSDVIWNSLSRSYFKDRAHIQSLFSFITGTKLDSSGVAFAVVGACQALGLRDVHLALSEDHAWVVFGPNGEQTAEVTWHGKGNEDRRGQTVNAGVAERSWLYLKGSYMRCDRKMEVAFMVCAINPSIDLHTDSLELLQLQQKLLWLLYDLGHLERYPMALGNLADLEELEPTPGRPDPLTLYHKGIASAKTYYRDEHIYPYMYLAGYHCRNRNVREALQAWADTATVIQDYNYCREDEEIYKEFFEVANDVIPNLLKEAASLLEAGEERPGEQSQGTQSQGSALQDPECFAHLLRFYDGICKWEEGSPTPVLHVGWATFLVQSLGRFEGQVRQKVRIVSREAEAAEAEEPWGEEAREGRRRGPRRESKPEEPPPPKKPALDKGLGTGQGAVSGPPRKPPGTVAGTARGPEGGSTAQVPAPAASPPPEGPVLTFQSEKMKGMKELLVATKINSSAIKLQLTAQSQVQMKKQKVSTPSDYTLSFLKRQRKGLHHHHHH
Method in brief: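 Terbium-labeled menin (a.a. 1-610, His-tagged; […]) pre-incubated 30 min with compound, then 75 nM FITC-MBM1 peptide added for 15 min at ambient temperature in Tris pH 7.5 buffer, 0.5% DMSO. HTRF 520/490 nm ratio read; IC50 from 11-point four-fold titrations, typically from 10 μM.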

MEIS1 mRNA expression = MEIS1 mRNA expression assay (Quantigene Singleplex) in MOLM14 cells; format: cell-based, human; settings: 48 hours incubation
Method in brief: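 MOLM14 cells, 3,750/well, exposed to increasing compound concentrations for 48 h. MEIS1 mRNA measured by QuantiGene Singleplex branched-DNA hybridization (lysis 45 min, hybridization 18–22 h, both 55 °C), normalized to RPL28. IC50 fitted to background-corrected fold change versus DMSO.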

IC50 [1]	IC50 (MEIS1 mRNA expression; Homo sapiens, MOLM-14, 48 h)	IC50 (MEIS1 mRNA expression)	Compound
0.223 nM	386 nM	–	Cc1cncc2c1c(C[C@@H]1CCN(CC3CCOCC3)C1)cn2-c1ccc(F)cc1C(=O)N1CCC(O)C1C (stereo in doubt) [Compound 358]
0.305 nM	158 nM	–	COCCN(C)CCCC(C(C)C)N1CCC(Cc2cn(-c3ccc(F)cc3C(=O)N(C)C(C)C)c3cncc(C(F)(F)F)c23)C1 (centres unmarked) [Compound 7]
0.036 nM	7 nM	–	CCC([C@H]1C[C@@H](N2C[C@H]3CN(C(C)=O)C[C@@H]3C2)C1)N1CC[C@@H](Cc2cn(-c3ccc(F)cc3C(=O)N(C)C(C)C)c3cncc(Cl)c23)C1 (some centres unmarked) [Compound 26a]
~0.036 nM	–	29 nM	CCC([C@H]1C[C@@H](N2C[C@H]3CN(C(C)=O)C[C@@H]3C2)C1)N1CC[C@@H](Cc2cn(-c3ccc(F)cc3C(=O)N(C)C(C)C)c3cncc(Cl)c23)C1 (some centres unmarked) [Compound 26b]
0.03 nM	23 nM	–	Cc1cncc2c1c(CC1CN([C@@H](C(C)C)[C@H]3C[C@H](N4CCC(S(C)(=O)=O)CC4)C3)C1)cn2-c1ccc(F)cc1C(=O)N(C)C(C)C [Compound 33b]
0.077 nM	47 nM	–	CCN(C(=O)c1cc(F)ccc1-n1cc(CC2CN(C(C(C)C)[C@H]3C[C@H](N4CCN(C(C)=O)CC4)C3)C2)c2c(C)cncc21)C(C)C (some centres unmarked) [Compound 35b]
0.237 nM	28 nM	–	CCN(C(=O)c1cc(F)ccc1-n1cc(CC2CN(C(C(C)C)[C@H]3C[C@H](N4CCN(S(C)(=O)=O)CC4)C3)C2)c2c(C)cncc21)C(C)C (some centres unmarked) [Compound 37b]
0.085 nM	14 nM	–	Cc1cncc2c1c(CC1CN(CC3CCN(C(=O)OC(C)(C)C)CC3)C1)cn2-c1ccc(F)cc1C(=O)N(C)C(C)C [Compound 62]
0.284 nM	~39 nM	–	Cc1cncc2c1c(CC1CN(CC3CCN(S(C)(=O)=O)CC3)C1)cn2-c1ccc(F)cc1C(=O)N(C)C(C)C [Compound 64]
0.079 nM	45 nM	–	COC(=O)N1CCC(CN2CC(Cc3cn(-c4ccc(F)cc4C(=O)N(C)C(C)C)c4cncc(C)c34)C2)CC1 [Compound 65]
1.3 nM	2220 nM	–	Cc1cncc2c1c(CC1CN(CC(=O)N3CCOCC3)C1)cn2-c1ccc(F)cc1C(=O)N(C)C(C)C [Compound 83]
0.155 nM	94 nM	–	Cc1cncc2c1c(CC1CN(C3CC4(CC(NC(=O)OC(C)(C)C)C4)C3)C1)cn2-c1ccc(F)cc1C(=O)N(C)C(C)C (centres unmarked) [Compound 91]
0.219 nM	52 nM	–	Cc1cncc2c1c(CC1CN(CC3CCC4(CC3)OCCO4)C1)cn2-c1ccc(F)cc1C(=O)N(C)C(C)C [Compound 92]
0.418 nM	~360 nM	–	CC(=O)N1CCC(CN2CCC(Cc3cn(-c4ccc(F)cc4S(=O)(=O)C(C)C)c4cncc(C)c34)C2)CC1 (centres unmarked) [Compound 93]
0.079 nM	309 nM	–	CC(=O)N1CCC(CN2CC(Cc3cn(-c4ccc(F)cc4C(=O)N(C)C(C)C)c4cncc(C)c34)C2)C1 (centres unmarked) [Compound 94]
0.601 nM	~914 nM	–	Cc1cncc2c1c(CC1CN(CC3CCCC(=O)N3)C1)cn2-c1ccc(F)cc1C(=O)N(C)C(C)C (centres unmarked) [Compound 95]
4.57 nM	3690 nM	–	Cc1cncc2c1c(CC1CN(CC(=O)N3CCC(F)(F)C3)C1)cn2-c1ccc(F)cc1C(=O)N(C)C(C)C [Compound 96]
1.97 nM	1610 nM	–	Cc1cncc2c1c(CC1CN(CC(=O)N3CC4CC4C3)C1)cn2-c1ccc(F)cc1C(=O)N(C)C(C)C (centres unmarked) [Compound 97]
0.747 nM	~535 nM	–	Cc1cncc2c1c(CC1CN(CC(=O)N3CCCCC3)C1)cn2-c1ccc(F)cc1C(=O)N(C)C(C)C [Compound 98]
3.02 nM	> 1000 nM	–	CC(=O)N1CC(CN2CCC(Cc3cn(-c4ccc(F)cc4C(=O)N(C)C(C)C)c4cncc(C)c34)CC2)C1 [Compound 102]
0.728 nM	> 1000 nM	–	Cc1cncc2c1c(CC1CCN(C[C@@H]3CCC(=O)N3)CC1)cn2-c1ccc(F)cc1C(=O)N(C)C(C)C [Compound 105]
0.188 nM	226 nM	–	CC(=O)N1CC2(CC(CN3CCC(Cc4cn(-c5ccc(F)cc5C(=O)N(C)C(C)C)c5cncc(C)c45)C3)C2)C1 (centres unmarked) [Compound 107]
0.304 nM	53 nM	–	Cc1cncc2c1c(CC1CCN(CC3CCOCC3)CC1)cn2-c1ccc(F)cc1C(=O)N(C)C(C)C [Compound 109]

IC50 [1]	IC50 (MEIS1 mRNA expression; Homo sapiens, MOLM-14, 48 h)	IC50 (MEIS1 mRNA expression)	Compound
1.8 nM	~1070 nM	–	Cc1cncc2c1c(CC1CCN(C[C@H]3CCC(=O)N3)CC1)cn2-c1ccc(F)cc1C(=O)N(C)C(C)C [Compound 110]
0.745 nM	~707 nM	–	COCC(=O)N1CC(CN2CCC(Cc3cn(-c4ccc(F)cc4C(=O)N(C)C(C)C)c4cncc(C)c34)CC2)C1 [Compound 111]
0.555 nM	345 nM	–	CC(=O)N1CC[C@@H](CN2CCC(Cc3cn(-c4ccc(F)cc4C(=O)N(C)C(C)C)c4cncc(C)c34)CC2)C1 [Compound 112]
0.642 nM	~493 nM	–	CC(=O)N1CC[C@H](CN2CCC(Cc3cn(-c4ccc(F)cc4C(=O)N(C)C(C)C)c4cncc(C)c34)CC2)C1 [Compound 113]
0.173 nM	487 nM	–	CC(=O)N1CC(CN2CC(Cc3cn(-c4ccc(F)cc4C(=O)N(C)C(C)C)c4cncc(C)c34)C2)C1 [Compound 114]
0.021 nM	11 nM	–	Cc1cncc2c1c(CC1CN(C[C@H]3CC[C@H](NS(C)(=O)=O)CC3)C1)cn2-c1ccc(F)cc1C(=O)N(C)C(C)C [Compound 115]
0.139 nM	117 nM	–	CC(=O)N[C@H]1CC[C@H](CN2CC(Cc3cn(-c4ccc(F)cc4C(=O)N(C)C(C)C)c4cncc(C)c34)C2)CC1 [Compound 118]
0.291 nM	277 nM	–	CNC(=O)C1CC(CN2CCC(Cc3cn(-c4ccc(F)cc4C(=O)N(C)C(C)C)c4cncc(C)c34)CC2)C1 (centres unmarked) [Compound 129]
1.2 nM	314 nM	–	CC(=O)N1CCC(CN2C[C@H](Cc3cn(-c4ccc(F)cc4C(=O)N(C)C(C)C)c4cncc(C)c34)C[C@H]2C)CC1 [Compound 130]
0.132 nM	129 nM	–	CC(=O)N1CCC(CN2C[C@@H](Cc3cn(-c4ccc(F)cc4C(=O)N(C)C(C)C)c4cncc(C)c34)C[C@H]2C)CC1 [Compound 131]
1.21 nM	~573 nM	–	CC(=O)N1CCC(CN2C[C@H](Cc3cn(-c4ccc(F)cc4C(=O)N(C)C(C)C)c4cncc(C)c34)C[C@@H]2C)CC1 [Compound 132]
0.051 nM	42 nM	–	CC(=O)N1CCC(CN2C[C@@H](Cc3cn(-c4ccc(F)cc4C(=O)N(C)C(C)C)c4cncc(C)c34)C[C@@H]2C)CC1 [Compound 133]
0.086 nM	10 nM	–	Cc1cncc2c1c(CC1CN(C[C@H]3CC[C@H](C(=O)N(C)C)CC3)C1)cn2-c1ccc(F)cc1C(=O)N(C)C(C)C [Compound 142]
0.064 nM	5 nM	–	CCNC(=O)[C@H]1CC[C@H](CN2CC(Cc3cn(-c4ccc(F)cc4C(=O)N(C)C(C)C)c4cncc(C)c34)C2)CC1 [Compound 143]
1.06 nM	~748 nM	–	CC(=O)N1CCC(CN2CCC[C@H](Cc3cn(-c4ccc(F)cc4C(=O)N(C)C(C)C)c4cncc(C)c34)C2)CC1 [Compound 145]
1.22 nM	> 1000 nM	–	CC(=O)N1CCC(CN2CCC[C@@H](Cc3cn(-c4ccc(F)cc4C(=O)N(C)C(C)C)c4cncc(C)c34)C2)CC1 [Compound 146]
0.037 nM	23 nM	–	Cc1cncc2c1c(C[C@@H]1CCN(CC3CCN(C(=O)N(C)C)CC3)C1)cn2-c1ccc(F)cc1C(=O)N(C)C(C)C [Compound 149]
0.053 nM	197 nM	–	Cc1cncc2c1c(C[C@@H]1CCN(CC3CCN(C(=O)NC4CC4)CC3)C1)cn2-c1ccc(F)cc1C(=O)N(C)C(C)C [Compound 152]
4.02 nM	> 1000 nM	–	CC(=O)N1CCC(CN2CCCC(Cc3cn(-c4ccc(F)cc4C(=O)N(C)C(C)C)c4cncc(C)c34)CC2)CC1 (centres unmarked) [Compound 160]
0.405 nM	259 nM	–	Cc1cncc2c1c(C[C@@H]1CCN(C[C@H]3CC[C@H](C(=O)N4CCC4)CC3)C1)cn2-c1ccc(F)cc1C(=O)N(C)C(C)C [Compound 179]
1.02 nM	1940 nM	–	CC(=O)N1C[C@@H]2[C@@H](CN3CC[C@@H](Cc4cn(-c5ccc(F)cc5C(=O)N(C)C(C)C)c5cncc(C)c45)C3)[C@@H]2C1 [Compound 187]
0.071 nM	41 nM	–	Cc1cncc2c1c(C[C@@H]1CCN(CC3CCCCC3)C1)cn2-c1ccc(F)cc1C(=O)N(C)C(C)C [Compound 193]
0.072 nM	66 nM	–	Cc1cncc2c1c(C[C@H]1CCN(CC3CCCCC3)C1)cn2-c1ccc(F)cc1C(=O)N(C)C(C)C [Compound 194]
